The values below come from patent US7495114B2, “Cytotoxic agents containing novel potent taxanes and their therapeutic use” (Immunogen Inc., priority 2002, dated 2009).

Common to all, as to type: cell-based, human
The test system of one assay is A431 cells. The experiment in a line: In vitro cytotoxicity of taxanes, plating efficiency (clonogenic) assay, A431. Conditions: read-out: IC50 value towards A431 cells. From the text:
(§1) The sulfide, disulfide, and sulfhydryl containing taxane drugs of the invention can be evaluated for their ability to suppress proliferation of various human tumor cell lines in vitro. Four adherent cell lines, A431 (human epidermoid carcinoma), SKBR3 (human breast tumor), A549 (human lung carcinoma) and MCF-7 (human breast tumor), and the non-adherent cell line, Namalwa (Burkitt's lymphoma) are used for the assessment of cytotoxicity of these compounds. Cells are exposed to the compounds for 72 hours and the surviving fractions of cells are measured in direct assays.
A431, A549 and MCF-7 cells were plated at different densities in 6-well tissue-culture plates in DMEM medium supplemented with 10% fetal calf serum. Taxane 2′, at varying concentrations, was added and the cells were maintained in a humidified atmosphere at 37° C. and 6% CO2 until colonies of approximately 20 cells or more were formed (6 to 10 days). Control plates contained no taxane. The cells were then fixed with formaldehyde, stained with crystal violet, and counted under a low-magnification microscope. Plating efficiencies were then determined from the colony numbers and surviving fractions of cells were calculated as the ratio of the plating efficiency of the treated sample and the plating efficiency of the control.

The subject of a further assay is MCF-7 cells. Description: In vitro cytotoxicity of taxanes, plating efficiency (clonogenic) assay, MCF-7. Particulars: read-out: IC50 value towards MCF-7 cells.
Description: (§2) The new taxanes and the disulfide containing taxane drugs of the invention can be evaluated for their ability to suppress proliferation of human tumor cell lines in vitro.
as §1
(§3) The cytotoxic potency of taxane 3′ was similarly confirmed. […] The cells were then fixed with formaldehyde, stained with crystal violet, and counted under a low-magnification microscope. Plating efficiencies were then determined from the colony numbers and surviving fractions of cells were calculated as the ratio of the plating efficiency of the treated sample and the plating efficiency of the control.
(§4) The new taxoids and the disulfide containing taxane drugs of the invention were evaluated for their ability to suppress proliferation of human tumor cell lines in vitro. […]
(§5) 18 and 37 was measured as follows. […]

A further assay relates to A549 cells. Description: In vitro cytotoxicity of taxanes, plating efficiency (clonogenic) assay, A549. Particulars: read-out: IC50 value towards A549 cells.
Description: as §2, §1, §3, §4, §5

As for “3′-dephenyl-3′-(isobutenyl)-7-(methyldisulfonyl-propanoyl)-docetaxel [Taxane 2′]”, in the assay on A431 cells, the IC50 was found to be 800 pM. For the compound `COc1ccc(OC)c(C(=O)OC2C3C4(OC(C)=O)COC4CC(OC(=O)CCSSC)C3(C)C(=O)C(O)C3=C(C)C(OC(=O)C(O)C(C=C(C)C)NC(=O)OC(C)(C)C)CC2(O)C3(C)C)c1` (stereo not drawn) [Taxane 3′, 3′-dephenyl-3′-(isobutenyl)-2-debenzoyl-2-(2,5-dimethoxybenzoyl)-7-(methyldisulfonyl-propanoyl)-docetaxel], the IC50 is 63 pM in the assay with MCF-7 cells and 180 pM in the assay with A549 cells.

The term IC50 denotes the concentration needed to halve the response being measured.
